{
  "source": "patent US20100130457A1",
  "about": "“Phenothiazine Derivatives for Treatment of Asthma” (Immune Control, Inc., priority 2008, published 2010)",
  "key": {"[1]": {"test_system": "BALB/c mice, Af-induced allergic airway inflammation and hyperresponsiveness", "assay": "Murine Aspergillus fumigatus (Af)-induced asthma model, methacholine-induced lung resistance / airway hyperresponsiveness", "assay_type": "in vivo, mouse", "description": "(§1) The following experiments were designed to test the efficacy of the compounds of the invention on a murine asthma model. A murine model of Aspergillus fumigatus (Af)-induced allergic airway inflammation and hyperresponsiveness was adapted from Haczku et al. (2001 Am. J. Respir. Cell Mol. Biol. 25: 45-50) to determine the activity of the candicate compounds (FIG. 2).\nBriefly, BALB/c mice were sensitized intraperitoneally and challenged intranasally with Af extract as a form of a type of allergen challenge in the presence or absence of dexamethasone. With respect to sensitization, “naïve” mice received intranasal vehicle challenges only, with phosphate-buffered saline (PBS) where as “sensitized’ mice were injected intraperitoneally with 25 μg Af together with alum in 100 μl of PBS on days 1 and 14, followed by intranasal challenge on days 25, 26, and 27 with 25 μg of Af extract in 40 PBS μl in the presence or absence of dexamethasone (2.5 mg/kg in 100 μl saline). On day 28, sensitized mice were treated with the test compound (0.1, 1.0, 10 mg/kg) either one hour before or simultaneously with methacholine challenge (2.5, 5, 10, 20 mg/mL). Methacholine challenge is to induce airway constriction.\nas §1, with “eradicate” for “candicate”, “11).” for “2).”\nBriefly, BALB/c mice were sensitized intraperitoneally and challenged intranasally with Af extract as a form of a type of allergen challenge in the presence or absence of dexamethasone. With respect to sensitization, “naïve” mice received intranasal vehicle challenges only, with phosphate-buffered saline (PBS) where as “sensitized’ mice were injected intraperitoneally with 25 μg Af together with alum in 100 μl of PBS on days 1 and 14, followed by intranasal challenge on days 25, 26, and 27 with 25 μg of Af extract in 40 PBS μl in the presence or absence of dexamethasone (2.5 mg/kg in 100 μl saline) in combination with either o.g. treatment with ICI-735 (1 mg/kg or 10 mg/kg) or i.p. treatment with ICI-735 1 mg/kg. On day 28, sensitized mice were treated with methacholine challenge (2.5, 5, 10, 20 mg/mL). Methacholine challenge is to induce airway constriction.\nWith respect to the murine model of allergen induced AHR, BALB/c mice were sensitized and challenged via intranasal instillation of Aspergillus fumigatus (Af). […] Four hours after the last allergen challenge, airway function was assessed by flexivent. […]"}, "hERG": {"target": "T1, hERG (Homo sapiens, UniProt Q12809)", "T1 construct": "expressed in transfected cells", "T1 sequence (Q12809 whole entry)": "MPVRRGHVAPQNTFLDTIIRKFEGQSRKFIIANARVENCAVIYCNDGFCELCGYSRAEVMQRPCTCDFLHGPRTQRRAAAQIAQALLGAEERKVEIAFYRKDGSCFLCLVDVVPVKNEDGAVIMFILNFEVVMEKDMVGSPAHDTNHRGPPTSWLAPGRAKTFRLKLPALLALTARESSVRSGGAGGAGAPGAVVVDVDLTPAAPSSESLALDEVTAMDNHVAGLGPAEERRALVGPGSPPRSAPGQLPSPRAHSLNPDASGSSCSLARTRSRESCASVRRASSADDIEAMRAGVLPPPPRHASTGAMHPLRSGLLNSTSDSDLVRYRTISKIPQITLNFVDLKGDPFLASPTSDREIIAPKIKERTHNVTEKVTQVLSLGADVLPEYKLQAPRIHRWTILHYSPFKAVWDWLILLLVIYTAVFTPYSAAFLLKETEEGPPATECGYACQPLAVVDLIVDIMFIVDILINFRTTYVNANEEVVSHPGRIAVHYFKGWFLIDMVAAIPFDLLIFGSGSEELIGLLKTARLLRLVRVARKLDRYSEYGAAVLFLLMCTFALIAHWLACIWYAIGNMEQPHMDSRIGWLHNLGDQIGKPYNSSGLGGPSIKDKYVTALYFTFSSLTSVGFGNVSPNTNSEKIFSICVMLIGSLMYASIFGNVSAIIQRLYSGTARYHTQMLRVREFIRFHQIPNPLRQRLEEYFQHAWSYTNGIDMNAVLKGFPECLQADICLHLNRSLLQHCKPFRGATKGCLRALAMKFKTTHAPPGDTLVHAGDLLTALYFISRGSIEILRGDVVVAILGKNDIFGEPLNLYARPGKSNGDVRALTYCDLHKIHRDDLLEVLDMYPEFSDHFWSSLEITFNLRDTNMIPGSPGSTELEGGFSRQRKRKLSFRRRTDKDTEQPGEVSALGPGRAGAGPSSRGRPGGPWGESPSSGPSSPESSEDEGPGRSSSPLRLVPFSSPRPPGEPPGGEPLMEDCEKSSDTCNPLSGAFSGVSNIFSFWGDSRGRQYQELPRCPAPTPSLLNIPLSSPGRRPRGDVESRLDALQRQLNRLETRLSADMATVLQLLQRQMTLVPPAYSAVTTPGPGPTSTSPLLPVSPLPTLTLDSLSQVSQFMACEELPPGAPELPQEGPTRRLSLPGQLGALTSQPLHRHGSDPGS", "assay": "Cardiac ion channels expressed in mammalian cells", "assay_type": "cell-based", "settings": "0.1 μM, 1 μm, 10 μm, and 100 μm", "description": "Voltage-gated K channels are activated by membrane depolarization. As with all voltage-gated ion channels, depolarization results in a conformational change in the S4 voltage sensor which contains positively charged amino acids. This conformational change triggers additional conformational changes leading to channel opening. Upon depolarization, these channels open, allowing the efflux of potassium from the cell, down its electrochemical gradient. They function in the heart and brain to repolarize the membrane potential and to terminate an action potential. A-type potassium currents are quickly inactivating potassium currents (eg, Kv4.2 and Kv1.4) and are important in the initial notch of repolarization in cardiac cells and the fast-spiking behavior of some neurons. Slowly inactivating channels provide more prolonged repolarization effects (eg, Kv1.5, Kv3.1, Kv2.1). hERG (human Ether-a-go-go Related Gene) channels are unusual voltage-gated potassium channels in that they are inwardly rectifying due to accelerated inactivation at positive voltages. hERG channels play a role in long-QT syndrome and block of hERG can precipitate torsades de pointe which may lead to fatal ventricular fibrillation. Screening of drugs for effects on hERG is desirable in investigational compounds. […]"}, "[2]": {"test_system": "panel of leukotriene and prostanoid receptors", "assay": "Receptor binding panel"}, "RPMI 8226": {"test_system": "RPMI 8226", "assay": "Inhibition of proliferation of RPMI 8226 cells", "assay_type": "cell-based, human", "settings": "RPMI cells in vitro", "description": "The next set of experiments was designed to assess compounds that have low levels of brain penetration for the ability of the test compounds to inhibit cellular proliferation. An exemplary in vitro assay is to screen for the ability of the test compounds to inhibit proliferation of the B-cell neoplastic cell line RPMI 8226 (a plasmacytoma derived from a multiple myeloma patient (Matsuoka, et al., 1967, Proc. Soc. Exp. Biol. Med. 125: 1246-1250). However other cell line can be used such as, U266 (established from an IgE-secreting myeloma patient (Nilsson, et al., 1970, Clin. Exp. Immunol., 7: 477-489) and ARH77 (an EBV transformed plasma cell leukemia (Burk, et al., 1978, Cancer Res. 38: 2508-2513).\nFIG. 1 is a graph depicting the effects on the test compounds on RPMI cell viability."}},
  "note": "“Also recorded” adds a separate entry of the source.",
  "data": [
    {"smiles": "NCC(=O)NCCN1CCN(CCCN2c3ccccc3Sc3ccc(C(F)(F)F)cc32)CC1", "note": "[ICI-735]", "values": [
      {"measurement": "AHR in Af sensitized mice", "setting": "[1]; i.p. 1 mg/ml two hours prior to each intranasal challenge, flexivent four hours after last challenge", "value": "significantly inhibited"},
      {"measurement": "decrease of lung resistance / airway hyper-responsiveness to methacholine", "setting": "[1]; intraperitoneal, from 0.1 mg/kg, one hour before or with methacholine challenge, compared with dexamethasone 2.5 mg/kg", "value": "at least as effective as 2.5 mg/kg dexamethasone; also recorded: decreased airway hyperresponsiveness"},
      {"measurement": "effect on naive animal airway contraction", "setting": "[1]; naive mice", "value": "no effect"},
      {"measurement": "decrease of lung resistance / airway hyper-responsiveness to methacholine", "setting": "[1]; oral (o.g.), 1 mg/kg or 10 mg/kg", "value": "effective at decreasing lung resistance"},
      {"measurement": "block of hERG", "setting": "hERG", "value": "able to block"},
      {"measurement": "binding to a panel of leukotriene and prostanoid receptors", "setting": "[2]", "value": "does not bind"},
      {"measurement": "ability to inhibit proliferation of RPMI cells", "setting": "RPMI 8226", "value": "did not inhibit proliferation of RPMI cells in vitro as well as some other compounds; also recorded: effective, but not as effective"}
    ]}
  ]
}
